Patent publication US10898459B2, “Method of treating chronic kidney disease” (Panion & BF Biotech Inc., priority 2006, dated 2021)

Columns and labels:
[1] = test system: patients with end stage renal disease (ESRD); conditions: 3 g daily, recent pilot study in ESRD patients; cited from earlier work
[2] = test system: patients with end stage renal disease (ESRD) on hemodialysis; test: Treatment-emergent adverse events in the dose-ranging ESRD study; type: in vivo, human
Text: Safety will be monitored by recording adverse events and the results of physical examinations, vital signs and laboratory tests at each study visit.
Objectives: (1) To determine the effect of ferric citrate at doses of 2, 4 and 6 g daily, administered TID (three times a day), for 28 days on serum phosphate (PO4) levels in patients with end stage renal disease (ESRD). (2) To evaluate the safety of ferric citrate at doses of 2, 4, 6 g daily, administered TID, for 28 days in patients with ESRD.
Study Design: Randomized, double-blind, placebo-controlled, dose-ranging study to assess the effect of ferric citrate on serum phosphate concentrations in patients with ESRD on hemodialysis. Patients are assessed at Study Days 14 and 28 for effectiveness as measured by serum phosphate concentrations. Patients who received one or more doses of study medication are also assessed for safety.

ferric citrate
tolerability (GI symptoms) [1]: mild, but tolerable GI symptoms | Abdominal Pain (Preferred Term), # Event ([2]; 2 g/day (N = 33)): 0 | Abdominal Pain (Preferred Term), (%) ([2]; 2 g/day (N = 33)): (0.0) % | Diarrhea (Preferred Term), # Event ([2]; 2 g/day (N = 33)): 3 | Diarrhea (Preferred Term), (%) ([2]; 2 g/day (N = 33)): (9.1) % | GI Disorder, Definitely (relationship), # Event ([2]; 2 g/day (N = 33)): 0 | GI Disorder, Definitely (relationship), (%) ([2]; 2 g/day (N = 33)): (0.0) % | GI Disorder, Possibly (relationship), # Event ([2]; 2 g/day (N = 33)): 3 | GI Disorder, Possibly (relationship), (%) ([2]; 2 g/day (N = 33)): (9.1) % | GI Disorder, Probably (relationship), # Event ([2]; 2 g/day (N = 33)): 2 | GI Disorder, Probably (relationship), (%) ([2]; 2 g/day (N = 33)): (6.1) % | GI Disorders (System Organ Class), # Event ([2]; 2 g/day (N = 33)): 8 | GI Disorders (System Organ Class), (%) ([2]; 2 g/day (N = 33)): (24.2) % | GI Disorders, Mild (severity), # Event ([2]; 2 g/day (N = 33)): 6 | GI Disorders, Mild (severity), (%) ([2]; 2 g/day (N = 33)): (18.2) % | General Disorders (System Organ Class), # Event ([2]; 2 g/day (N = 33)): 4 | General Disorders (System Organ Class), (%) ([2]; 2 g/day (N = 33)): (12.1) % | Infections and Infestations (System Organ Class), # Event ([2]; 2 g/day (N = 33)): 0 | Infections and Infestations (System Organ Class), (%) ([2]; 2 g/day (N = 33)): (0.0) % | Skin and SC Tissue Disorders (System Organ Class), # Event ([2]; 2 g/day (N = 33)): 3 | Skin and SC Tissue Disorders (System Organ Class), (%) ([2]; 2 g/day (N = 33)): (9.1) % | T#at1 AE, Definitely (relationship), # Event ([2]; 2 g/day (N = 33)): 0 | T#at1 AE, Definitely (relationship), (%) ([2]; 2 g/day (N = 33)): (0.0) % | T#at1 AE, Mild (severity), # Event ([2]; 2 g/day (N = 33)): 13 | T#at1 AE, Mild (severity), (%) ([2]; 2 g/day (N = 33)): (39.4) % | T#at1 AE, Moderate (severity), # Event ([2]; 2 g/day (N = 33)): 6 | T#at1 AE, Moderate (severity), (%) ([2]; 2 g/day (N = 33)): (18.2) % | T#at1 AE, Possibly (relationship), # Event ([2]; 2 g/day (N = 33)): 5 | T#at1 AE, Possibly (relationship), (%) ([2]; 2 g/day (N = 33)): (15.2) % | T#at1 AE, Probably (relationship), # Event ([2]; 2 g/day (N = 33)): 2 | T#at1 AE, Probably (relationship), (%) ([2]; 2 g/day (N = 33)): (6.1) % | T#at1 AE, Severe (severity), # Event ([2]; 2 g/day (N = 33)): 0 | T#at1 AE, Severe (severity), (%) ([2]; 2 g/day (N = 33)): (0.0) % | Total number of subjects with at least one adverse event (T#at1 AE), # Event ([2]; 2 g/day (N = 33)): 16 | Total number of subjects with at least one adverse event (T#at1 AE), (%) ([2]; 2 g/day (N = 33)): (48.5) % | Abdominal Pain (Preferred Term), # Event ([2]; 4 g/day (N = 34)): 4 | Abdominal Pain (Preferred Term), (%) ([2]; 4 g/day (N = 34)): (11.8) % | Diarrhea (Preferred Term), # Event ([2]; 4 g/day (N = 34)): 1 | Diarrhea (Preferred Term), (%) ([2]; 4 g/day (N = 34)): (2.9) % | GI Disorder, Definitely (relationship), # Event ([2]; 4 g/day (N = 34)): 0 | GI Disorder, Definitely (relationship), (%) ([2]; 4 g/day (N = 34)): (0.0) % | GI Disorder, Possibly (relationship), # Event ([2]; 4 g/day (N = 34)): 6 | GI Disorder, Possibly (relationship), (%) ([2]; 4 g/day (N = 34)): (17.6) % | GI Disorder, Probably (relationship), # Event ([2]; 4 g/day (N = 34)): 2 | GI Disorder, Probably (relationship), (%) ([2]; 4 g/day (N = 34)): (5.9) % | GI Disorders (System Organ Class), # Event ([2]; 4 g/day (N = 34)): 10 | GI Disorders (System Organ Class), (%) ([2]; 4 g/day (N = 34)): (29.4) % | GI Disorders, Mild (severity), # Event ([2]; 4 g/day (N = 34)): 8 | GI Disorders, Mild (severity), (%) ([2]; 4 g/day (N = 34)): (23.5) % | General Disorders (System Organ Class), # Event ([2]; 4 g/day (N = 34)): 2 | General Disorders (System Organ Class), (%) ([2]; 4 g/day (N = 34)): (5.9) % | Infections and Infestations (System Organ Class), # Event ([2]; 4 g/day (N = 34)): 3 | Infections and Infestations (System Organ Class), (%) ([2]; 4 g/day (N = 34)): (8.8) % | Skin and SC Tissue Disorders (System Organ Class), # Event ([2]; 4 g/day (N = 34)): 0 | Skin and SC Tissue Disorders (System Organ Class), (%) ([2]; 4 g/day (N = 34)): (0.0) % | T#at1 AE, Definitely (relationship), # Event ([2]; 4 g/day (N = 34)): 0 | T#at1 AE, Definitely (relationship), (%) ([2]; 4 g/day (N = 34)): (0.0) % | T#at1 AE, Mild (severity), # Event ([2]; 4 g/day (N = 34)): 9 | T#at1 AE, Mild (severity), (%) ([2]; 4 g/day (N = 34)): (26.5) % | T#at1 AE, Moderate (severity), # Event ([2]; 4 g/day (N = 34)): 3 | T#at1 AE, Moderate (severity), (%) ([2]; 4 g/day (N = 34)): (8.8) % | T#at1 AE, Possibly (relationship), # Event ([2]; 4 g/day (N = 34)): 6 | T#at1 AE, Possibly (relationship), (%) ([2]; 4 g/day (N = 34)): (17.6) % | T#at1 AE, Probably (relationship), # Event ([2]; 4 g/day (N = 34)): 2 | T#at1 AE, Probably (relationship), (%) ([2]; 4 g/day (N = 34)): (5.9) % | T#at1 AE, Severe (severity), # Event ([2]; 4 g/day (N = 34)): 2 | T#at1 AE, Severe (severity), (%) ([2]; 4 g/day (N = 34)): (5.9) % | Total number of subjects with at least one adverse event (T#at1 AE), # Event ([2]; 4 g/day (N = 34)): 12 | Total number of subjects with at least one adverse event (T#at1 AE), (%) ([2]; 4 g/day (N = 34)): (35.3) % | Abdominal Pain (Preferred Term), # Event ([2]; 6 g/day (N = 33)): 2 | Abdominal Pain (Preferred Term), (%) ([2]; 6 g/day (N = 33)): (6.1) % | Diarrhea (Preferred Term), # Event ([2]; 6 g/day (N = 33)): 1 | Diarrhea (Preferred Term), (%) ([2]; 6 g/day (N = 33)): (3.0) % | GI Disorder, Definitely (relationship), # Event ([2]; 6 g/day (N = 33)): 0 | GI Disorder, Definitely (relationship), (%) ([2]; 6 g/day (N = 33)): (0.0) % | GI Disorder, Possibly (relationship), # Event ([2]; 6 g/day (N = 33)): 1 | GI Disorder, Possibly (relationship), (%) ([2]; 6 g/day (N = 33)): (3.0) % | GI Disorder, Probably (relationship), # Event ([2]; 6 g/day (N = 33)): 5 | GI Disorder, Probably (relationship), (%) ([2]; 6 g/day (N = 33)): (15.2) % | GI Disorders (System Organ Class), # Event ([2]; 6 g/day (N = 33)): 10 | GI Disorders (System Organ Class), (%) ([2]; 6 g/day (N = 33)): (30.3) % | GI Disorders, Mild (severity), # Event ([2]; 6 g/day (N = 33)): 9 | GI Disorders, Mild (severity), (%) ([2]; 6 g/day (N = 33)): (27.3) % | General Disorders (System Organ Class), # Event ([2]; 6 g/day (N = 33)): 4 | General Disorders (System Organ Class), (%) ([2]; 6 g/day (N = 33)): (12.1) % | Infections and Infestations (System Organ Class), # Event ([2]; 6 g/day (N = 33)): 1 | Infections and Infestations (System Organ Class), (%) ([2]; 6 g/day (N = 33)): (3.0) % | Skin and SC Tissue Disorders (System Organ Class), # Event ([2]; 6 g/day (N = 33)): 4 | Skin and SC Tissue Disorders (System Organ Class), (%) ([2]; 6 g/day (N = 33)): (12.1) % | T#at1 AE, Definitely (relationship), # Event ([2]; 6 g/day (N = 33)): 0 | T#at1 AE, Definitely (relationship), (%) ([2]; 6 g/day (N = 33)): (0.0) % | T#at1 AE, Mild (severity), # Event ([2]; 6 g/day (N = 33)): 14 | T#at1 AE, Mild (severity), (%) ([2]; 6 g/day (N = 33)): (42.4) % | T#at1 AE, Moderate (severity), # Event ([2]; 6 g/day (N = 33)): 2 | T#at1 AE, Moderate (severity), (%) ([2]; 6 g/day (N = 33)): (6.1) % | T#at1 AE, Possibly (relationship), # Event ([2]; 6 g/day (N = 33)): 2 | T#at1 AE, Possibly (relationship), (%) ([2]; 6 g/day (N = 33)): (6.1) % | T#at1 AE, Probably (relationship), # Event ([2]; 6 g/day (N = 33)): 5 | T#at1 AE, Probably (relationship), (%) ([2]; 6 g/day (N = 33)): (15.2) % | T#at1 AE, Severe (severity), # Event ([2]; 6 g/day (N = 33)): 1 | T#at1 AE, Severe (severity), (%) ([2]; 6 g/day (N = 33)): (3.0) % | Total number of subjects with at least one adverse event (T#at1 AE), # Event ([2]; 6 g/day (N = 33)): 17 | Total number of subjects with at least one adverse event (T#at1 AE), (%) ([2]; 6 g/day (N = 33)): (51.5) %
